This is an account of results in PubChem BioAssay AID330 (DTP/NCI, 2004).

Molecules are shown by their SMILES. “And” between values parts separate entries of the source, which are not always exact repeats. Equal entries are not always repeated. Toxic doses and inconclusive results are not listed. Square brackets hold non-standard residues; d marks the D form. Peptide text beside a SMILES is read from it. ξ: configuration not given here. Ac5c = NC1(C(=O)O)CCCC1; ξS = NC(CO)C(=O)O

The test system of the test is P388 leukemia ip, CD2F1 mice, survival T/C. The test can be described thus: NCI In Vivo Anticancer Drug Screen. Data for tumor model P388 Leukemia (intraperitoneal) in CD2F1 (CDF1) mice. As to conditions: higher = longer survival. A digest of the protocol:
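Mice carrying the transplanted tumor received test compound or vehicle. Survival was recorded in each group, and the value is the treated-group measurement divided by that of the vehicle-treated control group.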

Where [1] appears, read: endpoint: median survival time, dose: 50.0 mg/kg/injection, schedule: Q01DX009 (ip), vehicle: saline with Tween-80.
Setting [2] is: endpoint: median survival time, dose: 100.0 mg/kg/injection, schedule: Q01DX009 (ip), vehicle: saline with Tween-80.
Where [3] appears, read: endpoint: median survival time, dose: 200.0 mg/kg/injection, schedule: Q01DX009 (ip), vehicle: saline with Tween-80.
Where [4] appears, read: endpoint: median survival time, dose: 50.0 mg/kg/injection, schedule: Q01DX005 (ip), vehicle: Klucel (hydroxypropylcellulose) (HPC).
The mark [5] stands for this setting: endpoint: median survival time, dose: 200.0 mg/kg/injection, schedule: Q01DX005 (ip), vehicle: Klucel (hydroxypropylcellulose) (HPC).
The mark [6] stands for this setting: endpoint: median survival time, dose: 100.0 mg/kg/injection, schedule: Q01DX005 (ip), vehicle: Klucel (hydroxypropylcellulose) (HPC).
Where [7] appears, read: endpoint: median survival time, dose: 60.0 mg/kg/injection, schedule: Q01DX005 (ip), vehicle: saline with Tween-80.
[8] abbreviates: endpoint: median survival time, dose: 120.0 mg/kg/injection, schedule: Q01DX005 (ip), vehicle: saline with Tween-80.
Setting [9] is: endpoint: median survival time, dose: 240.0 mg/kg/injection, schedule: Q01DX005 (ip), vehicle: saline with Tween-80.
[10] abbreviates: endpoint: median survival time, dose: 200.0 mg/kg/injection, schedule: Q01DX009 (ip), vehicle: saline.
Setting [11] is: endpoint: median survival time, dose: 400.0 mg/kg/injection, schedule: Q01DX009 (ip), vehicle: saline.

With `CCOC1OCN(c2ccc(Cl)cc2)CC1(C)C` (centres undefined), the T/C was 111 % of control (endpoint: median survival time, dose: 25.0 mg/kg/injection, schedule: Q01DX009 (ip), vehicle: saline with Tween-80); 106 % of control and 107 % of control and 93 % of control under setting [1]; 100 % of control and 119 % of control under setting [2]; 101 % of control and 116 % of control under setting [3]; 100 % of control and 110 % of control (endpoint: median survival time, dose: 400.0 mg/kg/injection, schedule: Q01DX009 (ip), vehicle: saline with Tween-80).
Take `CCCn1c(CC)nc([N+](=O)[O-])c1Sc1ncn[nH]1`: the T/C reads like this: (endpoint: median survival time, dose: 25.0 mg/kg/injection, schedule: Q01DX005 (ip), vehicle: Klucel (hydroxypropylcellulose) (HPC)) 123 % of control; under setting [4], 108 % of control; under setting [5], 113 % of control.
On to `Fc1cccc(C(Nc2nncs2)Nc2nncs2)c1`, for which the T/C under setting [4] is 108 % of control and 97 % of control; the T/C under setting [6] was 112 % of control and 114 % of control; the T/C (endpoint: median survival time, dose: 400.0 mg/kg/injection, schedule: Q01DX005 (ip), vehicle: Klucel (hydroxypropylcellulose) (HPC)) was 159 % of control.
For `Cc1s\c(=N/N=N/N=c2\sc(C)c(C)n2Cc2ccccc2)n(Cc2ccccc2)c1C`, the T/C was 103 % of control under setting [7], 97 % of control under setting [8] and 103 % of control under setting [9].
Turning to `CN(C)c1cccc(NC(=O)CC#N)c1`, the T/C by setting is: (endpoint: median survival time, dose: 50.0 mg/kg/injection, schedule: Q01DX005 (ip), vehicle: saline with Tween-80) 93 % of control; (endpoint: median survival time, dose: 100.0 mg/kg/injection, schedule: Q01DX005 (ip), vehicle: saline with Tween-80) 93 % of control.
In the case of `CN(C)Cc1ncccc1O`, the T/C is 102 % of control and 95 % of control (endpoint: median survival time, dose: 100.0 mg/kg/injection, schedule: Q01DX009 (ip), vehicle: saline); 100 % of control and 112 % of control under setting [10]; 113 % of control under setting [11].
Regarding `NC(=O)C1C(C(N)=O)C2C3C=CC(C4C(=O)NC(=O)C34)C12` (centres undefined), the T/C (endpoint: median survival time, dose: 100.0 mg/kg/injection, schedule: Q04DX002 (ip), vehicle: saline with Tween-80) is 102 % of control; the T/C (endpoint: median survival time, dose: 200.0 mg/kg/injection, schedule: Q04DX002 (ip), vehicle: saline with Tween-80) was 109 % of control; the T/C (endpoint: median survival time, dose: 400.0 mg/kg/injection, schedule: Q04DX002 (ip), vehicle: saline with Tween-80) was 111 % of control.
In the case of `O=C(O)C(CS)NC1CC(=O)N(Cc2ccccc2)C1=O` (centres undefined), the T/C was 110 % of control under setting [4], 103 % of control under setting [6] and 103 % of control under setting [5].
Regarding `CCOC(=O)C(CO)NC(=O)C1(NC(C)=O)CCCC1` (centres undefined) (Ac-[Ac5c]-[ξS]-OEt), the T/C (endpoint: median survival time, dose: 50.0 mg/kg/injection, schedule: Q01DX005 (ip), vehicle: saline) is 100 % of control; the T/C (endpoint: median survival time, dose: 100.0 mg/kg/injection, schedule: Q01DX005 (ip), vehicle: saline) is 100 % of control; the T/C (endpoint: median survival time, dose: 200.0 mg/kg/injection, schedule: Q01DX005 (ip), vehicle: saline) was 100 % of control.
For the compound `CCOC(=O)C1=C(C)/C(=C/c2[n-]c(C)c(C(=O)OCC)c2C)N=C1C.CCOC(=O)C1=C(C)/C(=C/c2[n-]c(C)c(C(=O)OCC)c2C)N=C1C.[Co+2]`, the T/C reads like this: (endpoint: mean survival time, dose: 12.5 mg/kg/injection, schedule: Q01DX001 (ip), vehicle: saline with Tween-80) 95 % of control; (endpoint: mean survival time, dose: 25.0 mg/kg/injection, schedule: Q01DX001 (ip), vehicle: saline with Tween-80) 92 % of control; (endpoint: mean survival time, dose: 50.0 mg/kg/injection, schedule: Q01DX001 (ip), vehicle: saline with Tween-80) 90 % of control.
In the case of `COC(=O)c1ccoc1`, the T/C runs as follows: under setting [1], 96 % of control; (endpoint: median survival time, dose: 50.0 mg/kg/injection, schedule: Q01DX009 (ip), vehicle: saline) 116 % of control; under setting [2], 108 % of control; under setting [3], 123 % of control; under setting [10], 113 % of control; under setting [11], 107 % of control.
In the case of `C1=Cc2cc(CN3CCOCC3)ccc2Nc2ccc(CN3CCOCC3)cc21`, the T/C is 96 % of control (endpoint: median survival time, dose: 60.0 mg/kg/injection, schedule: Q01DX005 (ip), vehicle: Klucel (hydroxypropylcellulose) (HPC)); 94 % of control (endpoint: median survival time, dose: 120.0 mg/kg/injection, schedule: Q01DX005 (ip), vehicle: Klucel (hydroxypropylcellulose) (HPC)); 99 % of control (endpoint: median survival time, dose: 240.0 mg/kg/injection, schedule: Q01DX005 (ip), vehicle: Klucel (hydroxypropylcellulose) (HPC)).
Consider `NC(=O)CCC(NC(=O)OCC1c2ccccc2-c2ccccc21)C(=O)O` (centres undefined), for which the T/C reads like this: under setting [4], 104 % of control; under setting [6], 103 % of control; under setting [5], 104 % of control.
`C=CN=NNc1ccc(Cl)cc1`: the T/C is, setting by setting: (endpoint: median survival time, dose: 100.0 mg/kg/injection, schedule: Q04DX003 (ip), vehicle: saline + Tween-80 + alcohol) 109 % of control; (endpoint: median survival time, dose: 200.0 mg/kg/injection, schedule: Q04DX003 (ip), vehicle: saline + Tween-80 + alcohol) 108 % of control; (endpoint: median survival time, dose: 400.0 mg/kg/injection, schedule: Q04DX003 (ip), vehicle: saline + Tween-80 + alcohol) 117 % of control.
As to `O=C1C(c2ccccc2)=C(c2ccccc2)C2(c3ccccc3)C=NNC12c1ccccc1` (centres undefined), the T/C runs as follows: (endpoint: median survival time, dose: 6.25 mg/kg/injection, schedule: Q01DX005 (ip), vehicle: Klucel (hydroxypropylcellulose) (HPC)) 95 % of control; (endpoint: median survival time, dose: 12.5 mg/kg/injection, schedule: Q01DX005 (ip), vehicle: Klucel (hydroxypropylcellulose) (HPC)) 92 % of control.
With `CC[C@@H](C)[C@@H]1NC(=O)C(NC(=O)C(CC(C)C)N(C)C(=O)C2CCCN2C(=O)C(C)O)C(C)OC(=O)C(Cc2ccc(OC)cc2)N(C)C(=O)C2CCCN2C(=O)C(CC(C)C)NC(=O)C(C)C(=O)C(C(C)C)OC(=O)C[C@H]1O` (some centres undefined), the T/C by setting is: (endpoint: median survival time, dose: 0.03 mg/kg/injection, schedule: Q01DX009 (ip), vehicle: none) 171 % of control; (endpoint: median survival time, dose: 10.0 micrograms/kg/injection, schedule: Q01DX009 (ip), vehicle: distilled water + alcohol) 112 % of control; (endpoint: median survival time, dose: 20.0 micrograms/kg/injection, schedule: Q01DX009 (ip), vehicle: distilled water + alcohol) 112 % of control; (endpoint: median survival time, dose: 80.0 micrograms/kg/injection, schedule: Q01DX009 (ip), vehicle: distilled water + alcohol) 155 % of control.
Regarding `COc1ccc(C2CC(=O)N(c3ncccn3)C(=O)C2)cc1`, the T/C (endpoint: median survival time, dose: 100.0 mg/kg/injection, schedule: Q04DX003 (ip), vehicle: saline) is 103 % of control; the T/C (endpoint: median survival time, dose: 200.0 mg/kg/injection, schedule: Q04DX003 (ip), vehicle: saline) was 94 % of control; the T/C (endpoint: median survival time, dose: 400.0 mg/kg/injection, schedule: Q04DX003 (ip), vehicle: saline) was 102 % of control.
`Cc1cccc(NN=O)n1`: the T/C was 98 % of control (endpoint: median survival time, dose: 1.5 mg/kg/injection, schedule: Q01DX009 (ip), vehicle: water); 99 % of control (endpoint: median survival time, dose: 1.56 mg/kg/injection, schedule: Q01DX009 (ip), vehicle: water); 107 % of control (endpoint: median survival time, dose: 3.0 mg/kg/injection, schedule: Q01DX009 (ip), vehicle: water); 115 % of control (endpoint: median survival time, dose: 3.12 mg/kg/injection, schedule: Q01DX009 (ip), vehicle: water); 120 % of control (endpoint: median survival time, dose: 6.25 mg/kg/injection, schedule: Q01DX009 (ip), vehicle: water); 163 % of control (endpoint: median survival time, dose: 25.0 mg/kg/injection, schedule: Q01DX009 (ip), vehicle: water).
With `CCOc1ccc(C(C)c2cc3c(cc2O)OCO3)cc1` (centres undefined), the T/C is, setting by setting: under setting [7], 105 % of control; under setting [8], 104 % of control; under setting [9], 109 % of control.
